Among the data in patent US20240368181A1, “QUINOXALINE DERIVATIVES AND USES THEREOF” (Black Diamond Therapeutics, Inc., priority 2021, published 2024) are IC50 values, retold here.

Common to all, as to assay type: cell-based
Test [1] relates to SNU-16 (FGFR2-amplification) cells. Put plainly: cell proliferation assay (CellTiterGlo), SNU-16 cells. The conditions noted are these: Homo sapiens, 72 hours. A digest of the protocol: (§1)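 Cells were incubated with vehicle (DMSO) or compound over a range of concentrations. Growth inhibition was read by CellTiterGlo luminescence of intracellular ATP. IC50 was derived after normalizing to vehicle-treated cells as viable.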
A general note: In ATP-based viability assays light output follows the ATP content of the culture.

The test system of test [2] is UM-UC-14 (FGFR3-S249C) cells. Briefly: cell proliferation assay (CellTiterGlo), UM-UC-14 cells. The conditions noted are these: UMUC14, 72 h. A digest of the protocol:
as §1

In test [3] the test system is DMS-114 (FGFR1 overexpression) cells. Briefly: cell proliferation assay (CellTiterGlo), DMS-114 cells. Particulars: Homo sapiens, DMS-114, 72 h. A digest of the protocol: as §1
Test [4] deals with RT-112 (FGFR3-Tacc3 fusion) cells. Briefly: cell proliferation assay (CellTiterGlo), RT-112 cells. Particulars: Homo sapiens, RT-112, RT112 cells, 72 hours. The gist of the method:
as §1

Some results are limits rather than exact numbers.

By IC50 is commonly meant the concentration that gives 50% inhibition. A high value points to weaker potency.

On to `Cc1nc2ccc(Oc3ccc4ncc(-c5cnn(C(C)(C)C(=O)O)c5)nc4c3Cl)c(F)c2[nH]1` [Compound 115], for which the IC50 in test [1], in test [2], in test [3] and in test [4] was no less than 400 nM throughout.
For `Cc1nc2ccc(Oc3ccc4ncc(-c5cnn(C6CN(C)C6)c5)nc4c3Cl)cc2[nH]1` [Compound 227], the IC50 is 20 to 100 nM in test [1], 20 to 100 nM in test [2], no less than 400 nM in test [3] and 20 to 100 nM in test [4].
With `Cc1nc2ccc(Oc3ccc4ncc(-c5cnn(CC6OCCCO6)c5)nc4c3Cl)cc2[nH]1` [Compound 389], the IC50 in test [1] was 20 to 100 nM; in test [2] it was 100 to 400 nM; in test [3], no less than 400 nM; in test [4] it was 20 to 100 nM.
As to `Cc1nc2ccc(Oc3ccc4ncc(-c5cnn(CC(=O)O)c5)nc4c3Cl)cc2[nH]1` [Compound 269], the IC50 in test [1], in test [2], in test [3] and in test [4] was no less than 400 nM throughout.
As for `COC1CCN(CCn2cc(-c3cnc4ccc(Oc5ccc6nc(C)[nH]c6c5)c(Cl)c4n3)cn2)C1` (stereo not drawn) [Compound 260], the IC50 in test [1] is 20 to 100 nM; in test [2] it was 20 to 100 nM; in test [3] it was 100 to 400 nM; in test [4], 20 to 100 nM.
Take `Cc1nc2ccc(Oc3ccc4ncc(-c5cnn(C6CCNCC6)c5)nc4c3C3CC3)cc2[nH]1` [Compound 289]: the IC50 in test [1] is 20 to 100 nM; in test [2] it was 20 to 100 nM; in test [3] it was 100 to 400 nM; in test [4], 20 to 100 nM.
As for `CC(=O)NC1(Cn2cc(-c3cnc4ccc(Oc5ccc6nc(C)[nH]c6c5)c(Cl)c4n3)cn2)CC1` [Compound 98], the concentration for half-maximal inhibition (IC50) in test [1] is 100 to 400 nM; in test [2], no less than 400 nM; in test [3] it was no less than 400 nM; in test [4] it was 100 to 400 nM.
On to `CNC(=O)CN1CC(Cn2cc(-c3cnc4ccc(Oc5ccc6nc(C)[nH]c6c5)c(Cl)c4n3)cn2)C1` [Compound 315], for which the IC50 in test [1] was 20 to 100 nM; in test [2], 20 to 100 nM; in test [3], no less than 400 nM; in test [4], 20 to 100 nM.
On to `Cc1nc2ccc(Oc3ccc4ncc(-c5cnn(CC6CCC(N(C)C)CC6)c5)nc4c3Cl)cc2[nH]1` (stereo not drawn) [Compound 338], for which the IC50 in test [1] lay in the range of 20 to 100 nM; in test [2], 20 to 100 nM; in test [3], 100 to 400 nM; in test [4], 20 to 100 nM.
With `COC1CN([C@H]2C[C@H](n3cc(-c4cnc5ccc(Oc6ccc7nc(C)[nH]c7c6)c(Cl)c5n4)cn3)C2)C1` [Compound 202], the half-inhibitory concentration (IC50) in test [1] was 20 to 100 nM; in test [2], 20 to 100 nM; in test [3], no less than 400 nM; in test [4] it was 20 to 100 nM.
Consider `Cc1nc2ccc(Oc3ccc4ncc(-c5cnn(CC(C)(O)C(F)(F)F)c5)nc4c3Cl)c(F)c2[nH]1` (stereo not drawn) [Compound 122], for which the half-inhibitory concentration (IC50) in test [1] is 20 to 100 nM; in test [2], 20 to 100 nM; in test [3], no less than 400 nM; in test [4] it was 20 to 100 nM.
As to `Cc1nc2ccc(Oc3ccc4ncc(-c5cnn(C6CCNCC6)c5C)nc4c3Cl)cc2[nH]1` [Compound 263], the IC50 in test [1] was 100 to 400 nM; in test [2], 100 to 400 nM; in test [3], no less than 400 nM; in test [4], 100 to 400 nM.
As to `Cc1nc2ccc(Oc3ccc4ncc(-c5cnn([C@H]6CC[C@H](N7CCC7)CC6)c5)nc4c3Cl)cc2[nH]1` [Compound 355], the IC50 in test [1] was 20 to 100 nM; in test [2] it was 20 to 100 nM; in test [3] it was 100 to 400 nM; in test [4] it was 20 to 100 nM.
Take `Cc1nc2ccc(Oc3ccc4ncc(-c5cnn(CC(C)(C)C#N)c5)nc4c3Cl)cc2[nH]1` [Compound 272]: the IC50 in test [1] is 20 to 100 nM; in test [2] it was 20 to 100 nM; in test [3], no less than 400 nM; in test [4], 20 to 100 nM.
For `CO[C@H]1CC[C@H](Cn2cc(-c3cnc4ccc(Oc5ccc6nc(C)[nH]c6c5)c(Cl)c4n3)cn2)CC1` [Compound 335], the IC50 in test [1] was 20 to 100 nM; in test [2] it was 20 to 100 nM; in test [3] it was no less than 400 nM; in test [4], 20 to 100 nM.
Regarding `Cc1nc2ccc(Oc3ccc4ncc(-c5cnn([C@H]6CCNC[C@@H]6F)c5)nc4c3C)cc2[nH]1` [Compound 288], the IC50 is 20 to 100 nM in test [1], 20 to 100 nM in test [2], no less than 400 nM in test [3] and 20 to 100 nM in test [4].
With `Cc1nc2ccc(Oc3ccc4ncc(-c5cnn(C6CCCN(C)C6)c5)nc4c3Cl)cc2[nH]1` (stereo not drawn) [Compound 378], the IC50 in test [1] is 20 to 100 nM; in test [2] it was 20 to 100 nM; in test [3], no less than 400 nM; in test [4], 20 to 100 nM.
Turning to `Cc1nc2ccc(Oc3ccc4ncc(-c5cnn(CC6CC(F)(F)C6)c5)nc4c3C3=CCOC3)cc2[nH]1` [Compound 179], the half-inhibitory concentration (IC50) is less than 20 nM in test [1], less than 20 nM in test [2], 100 to 400 nM in test [3] and less than 20 nM in test [4].
Consider `Cc1nc2ccc(Oc3ccc4ncc(-c5cnn(CCC6C=CCO6)c5)nc4c3Cl)cc2[nH]1` (stereo not drawn) [Compound 376], for which the IC50 was 20 to 100 nM in test [1], 20 to 100 nM in test [2], no less than 400 nM in test [3] and 20 to 100 nM in test [4].
`CNC(=O)CN1CCC(n2cc(-c3cnc4ccc(Oc5ccc6nc(C)[nH]c6c5)c(Cl)c4n3)cn2)CC1` [Compound 322]: the IC50 in test [1] is 20 to 100 nM; in test [2], 20 to 100 nM; in test [3], no less than 400 nM; in test [4], less than 20 nM.
Take `Cc1nc2ccc(Oc3ccc4ncc(-c5cnn(CC(=O)N6CCC(O)C6)c5)nc4c3Cl)cc2[nH]1` (stereo not drawn) [Compound 306]: the IC50 in test [1] is 100 to 400 nM; in test [2], 100 to 400 nM; in test [3], no less than 400 nM; in test [4], 20 to 100 nM.
Turning to `Cc1nc2ccc(Oc3ccc4ncc(-c5cnn(C6CCN(C)CC6)c5)nc4c3Cl)cc2[nH]1` [Compound 370], the 50% inhibitory concentration (IC50) was less than 20 nM in test [1], 20 to 100 nM in test [2], 100 to 400 nM in test [3] and 20 to 100 nM in test [4].
For the compound `Cc1nc2ccc(Oc3ccc4ncc(-c5cnn(CC6CCN(C)CC6)c5)nc4c3C#N)cc2[nH]1` [Compound 382], the half-inhibitory concentration (IC50) in test [1] is 20 to 100 nM; in test [2], 20 to 100 nM; in test [3], 100 to 400 nM; in test [4] it was 20 to 100 nM.
On to `Cc1nc2ccc(Oc3ccc4ncc(-c5cnn(CC6CCNCC6)c5)nc4c3C)cc2[nH]1` [Compound 292], for which the IC50 is 100 to 400 nM in test [1], 20 to 100 nM in test [2], no less than 400 nM in test [3] and 100 to 400 nM in test [4].
Turning to `Cc1nc2ccc(Oc3ccc4ncc(-c5cnn(C(C)(C)CC#N)c5)nc4c3Cl)cc2[nH]1` [Compound 255], the IC50 is 20 to 100 nM in test [1], 20 to 100 nM in test [2], no less than 400 nM in test [3] and 20 to 100 nM in test [4].
For the compound `Cc1nc2ccc(Oc3ccc4ncc(-c5cnn(CC6CNCCO6)c5)nc4c3Cl)cc2[nH]1` (stereo not drawn) [Compound 273], the IC50 is 20 to 100 nM in test [1], 20 to 100 nM in test [2], no less than 400 nM in test [3] and 20 to 100 nM in test [4].
On to `Cc1nc2ccc(Oc3ccc4ncc(-c5cnn([C@@H]6C[C@H]7CC[C@@H](C6)N7C)c5)nc4c3Cl)cc2[nH]1` [Compound 363], for which the half-maximal inhibitory concentration (IC50) was 20 to 100 nM in test [1], 20 to 100 nM in test [2], no less than 400 nM in test [3] and 20 to 100 nM in test [4].
